{
  "source": "patent US5300304A",
  "about": "“Pulsatile once-a-day delivery systems for minocycline” (priority 1992, dated 1994)",
  "key": {"[1]": {"details": "taken without food; cited from earlier work"}, "[2]": {"test_system": "gram-negative and gram-positive bacteria", "details": "PDR 43rd Ed.; cited from earlier work"}},
  "note": "Where two headings read alike, the source gives them in different places.",
  "data": [
    {"smiles": "CN(C)c1ccc(O)c2c1C[C@H]1C[C@H]3[C@H](N(C)C)C(=O)C(C(N)=O)=C(O)[C@@]3(O)C(=O)C1=C2O", "note": "[minocycline, 7-dimethylamino-6-deoxy-6-demethyltetracycline]", "values": [
      {"measurement": "bioavailability of minocycline in the gastrointestinal tract", "setting": "duodenum, based upon 100 percent absorption in the stomach", "result": 106, "unit": "%"},
      {"measurement": "absorption in the lower gastrointestinal tract", "setting": "human patients, intubation", "result": "reduced absorption"},
      {"measurement": "bioavailability of minocycline in the gastrointestinal tract", "setting": "ileum, based upon 100 percent absorption in the stomach", "result": 58, "unit": "%"},
      {"measurement": "bioavailability of minocycline in the gastrointestinal tract", "setting": "jejunum, based upon 100 percent absorption in the stomach", "result": 80, "unit": "%"},
      {"measurement": "bioavailability of minocycline in the gastrointestinal tract", "setting": "stomach, reference (100 percent absorption in the stomach)", "result": 100, "unit": "%"},
      {"measurement": "half life", "setting": "[1]", "result": "approximately 10 hours"},
      {"measurement": "organisms susceptible to minocycline therapy", "setting": "[2]", "result": "wide range of gram-negative and gram-positive bacteria"}
    ]}
  ]
}
